As usually defined, the GI50 is the concentration giving 50% growth inhibition. Read a high GI50 as less potent growth inhibition.

From patent US20180135134A1, “TARGETED SELECTION OF PATIENTS FOR TREATMENT WITH CORTISTATIN DERIVATIVES” (President and Fellows of Harvard College, priority 2015, published 2018) come the findings set out here.

Molecules are shown by their SMILES.

One experiment deals with UKE-1. Kind of experiment: Synergy assay with ruxolitinib (Chou-Talalay), UKE-1. Type of experiment: cell-based, human. The conditions noted are these: combination of cortistatin A with JAK1/2 inhibitor ruxolitinib, FIG. 5. As for the experimental part: (§1) SET-2 and UKE-1 cells were co-treated with constant ratios of ruxolitinib to CA, 1 to 1 or 10 to 1, in a 96-well growth assay format with a range of 2-fold dose dilutions of compounds. SET-2 and UKE-1 cells were also treated with ruxolitinib alone or CA alone in a 2-fold dilution series. The Chou-Talalay combination index values at 50% growth inhibition (Fa=0.5) were determined using CalcuSyn software (see Chou, T. C. Cancer Res. 2010 Jan. 15; 70(2):440-6) (FIG. 5).

The target in another experiment is T1, CDK8 W105M (Homo sapiens, UniProt P49336, W105M).
T1 construct: host or cells: MOLM-14 cells, lentiviral transduction (pLVX-EF1alpha-IRES vectors)
Kind of experiment: Drug resistant allele growth assay in MOLM-14 cells. Type of experiment: cell-based. The conditions noted are these: expression of CDK8 W105M; FIG. 9.

In the next experiment the test system is SK-N-SH. The experiment is described as follows: Soft agar growth assay (Alamar Blue). To be noted: Neuroblastoma, 100 nM cortistatin A. (In general: Resazurin is reduced to fluorescent resorufin, in cell work by metabolically active cells.)
In the next experiment the test system is GRANTA 519. Kind of experiment: Cellular proliferation assay (CellTiter-Glo). To be noted: Homo sapiens. On the technique in general: Cellular ATP, detected with luciferase, serves as a proxy for viable cell number.
For a further experiment, the system named is SK-N-MC. The experiment is described as follows: Soft agar growth assay (Alamar Blue). To be noted: Neuroblastoma, EWS-FLI1, 100 nM cortistatin A.
The subject of a further experiment is MOLM-16. The experiment is described as follows: Cellular proliferation assay (CellTiter-Glo). To be noted: Homo sapiens.
The next experiment deals with RS4;11. Kind of experiment: Cellular proliferation assay (CellTiter-Glo). To be noted: Homo sapiens.
The test system of the next experiment is HL-60. The experiment is described as follows: Cellular proliferation assay (CellTiter-Glo). To be noted: Homo sapiens.
For experiment [1], the system named is RUNX1 target genes including CEBPA, IRF8 and NFE2. The experiment is described as follows: Gene expression in CA-sensitive cell lines SET-2, MOLM-14 and MV4;11. The format is cell-based, human. To be noted: SET-2, MOLM-14 and MV4;11 cell lines. As for the experimental part: Leukemia cells were plated (12-well) in triplicate at 500,000-800,000 cells per ml and incubated in the presence of vehicle (0.1% DMSO) or CA (25 nM 3 h for K562, MOLM-14 and MV4;11; 10 nM 24 h for MOLM-14; 25 nM 4 h for SET-2, n=3 for each cell line). Cells were then washed twice with cold PBS, and snap frozen. RNA was isolated (RNeasy Plus Microkit, Qiagen or TRIzol, Life Technologies), processed, and, for K562, MOLM-14 and MV4;11, hybridized to the Human U133 Plus 2.0 microarray (Affymetrix). Microarrays were processed with Bioconductor packages affyQCReport for quality control and affy for background correction, summarization, and normalization using rma. […] SET-2 and HCT 116 gene expression was measured by RNA-seq. […] Reads were aligned in two passes, first with rnaStar (v.2.3.0e) then with BWA (v.0.7.5a) for remaining unmapped reads, both using default parameters. Mapped reads were merged and counted using HTSeq (v.0.5.3p3) with -s yes -m intersection-strict. […] Samples were run in a single lane on an Illumina HiSEQ 2000 sequencer with a single read flow cell using 1×50-bp reads and a 6-cycle index read. Reads were mapped to the hgl9 reference genome using Tophat2 v.2.0.6 with custom settings including the setting of—library-type fr—firstrand to appropriately account for the stranded nature of the protocol. […]

For a further experiment, the system named is MV4;11. The experiment is described as follows: Cellular proliferation assay (CellTiter-Glo). The conditions noted are these: Homo sapiens.
In the next experiment the test system is SK-ES-1. Kind of experiment: Soft agar growth assay (Alamar Blue). To be noted: EWS-FLI1, 100 nM cortistatin A.
The next experiment deals with SET-2 cells. Kind of experiment: SET-2 differentiation assay (CD41/CD61 flow cytometry). To be noted: 50 nM cortistatin A, 3 days; FIG. 3. A general note: A flow cytometer gives signals particle by particle.
For experiment [2], the system named is SET-2. The experiment is described as follows: Synergy assay with ruxolitinib (Chou-Talalay), SET-2. To be noted: combination of cortistatin A with JAK1/2 inhibitor ruxolitinib, FIG. 5. Type of experiment: cell-based, human. As for the experimental part: as §1
In experiment [3] the test system is megakaryocytic and erythroleukemia cell lines. Kind of experiment: Comparison of sensitivity of megakaryocytic and erythroleukemia cell lines. To be noted: K562 and HEL compared to MEG-01 and SET-2 (BCR-Abl or JAK2V617F).
The next experiment relates to NB4. Kind of experiment: Cellular proliferation assay (CellTiter-Glo). The conditions noted are these: Homo sapiens, NB-4.
In another experiment the test system is SKNO-1. The experiment is described as follows: Cellular proliferation assay (CellTiter-Glo). To be noted: Homo sapiens.
The next experiment has as its system ARH-77. The experiment is described as follows: Cellular proliferation assay (CellTiter-Glo). To be noted: Homo sapiens.
For experiment [4], the system named is SET-2. Kind of experiment: Cellular proliferation assay (CellTiter-Glo). To be noted: for GI50: Homo sapiens.
Method: (§2) All suspension cells were plated (96-well) in triplicate at 5,000-30,000 cells per well for testing (n=3). Viable cell number was estimated after 3, 7 and 10 days by counting viable cells from one vehicle well, generating a cell dilution series, transferring 20 ml per well in duplicate to a 384-well plate, and performing a linear regression to CellTiter-Glo (Promega) response (SPECTRAmax M3, Molecular Devices). Cells from all wells were also fourfold diluted in media and transferred in duplicate for CellTiter-Glo measurement. On days 3 and 7, an equal volume for all wells was split-back with fresh media and compound, such that the resulting cell density for the vehicle well matched the initial seeding density. For days 7 and 10, estimated cell number represents the split-adjusted theoretical cell number. […] For growth assays with inhibitors, n=3 for each concentration with two independent experiments.

T1 sequence (P49336 whole entry W105M): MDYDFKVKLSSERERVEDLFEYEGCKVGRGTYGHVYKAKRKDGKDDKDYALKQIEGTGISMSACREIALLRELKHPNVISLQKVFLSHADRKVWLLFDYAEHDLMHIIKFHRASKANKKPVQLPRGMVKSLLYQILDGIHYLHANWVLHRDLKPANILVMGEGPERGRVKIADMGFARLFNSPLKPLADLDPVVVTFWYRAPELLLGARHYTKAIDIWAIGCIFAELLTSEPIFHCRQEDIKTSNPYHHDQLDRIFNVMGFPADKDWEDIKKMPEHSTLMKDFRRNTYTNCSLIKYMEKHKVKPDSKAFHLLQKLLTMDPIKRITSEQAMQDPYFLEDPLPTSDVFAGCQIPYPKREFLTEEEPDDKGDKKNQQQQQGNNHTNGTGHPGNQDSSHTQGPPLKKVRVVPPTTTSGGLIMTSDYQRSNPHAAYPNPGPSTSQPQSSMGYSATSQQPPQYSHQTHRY
T1 sequence (P24863 whole entry partner): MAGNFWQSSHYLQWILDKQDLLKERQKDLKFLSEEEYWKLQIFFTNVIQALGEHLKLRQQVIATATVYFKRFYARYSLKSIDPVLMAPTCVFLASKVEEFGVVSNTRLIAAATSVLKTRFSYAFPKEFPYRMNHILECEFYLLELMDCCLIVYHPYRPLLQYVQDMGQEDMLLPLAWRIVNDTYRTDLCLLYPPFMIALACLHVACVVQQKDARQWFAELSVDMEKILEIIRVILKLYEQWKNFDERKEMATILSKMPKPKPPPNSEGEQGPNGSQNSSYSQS
Method for ARH-77: as §2
Method for CDK8 W105M: 5′-Flag-tagged CDK8 and CDK19 were cloned from pBabe.puro.CDK8.flag (Addgene 19758) and F-CDK8L (Addgene 24762) into pLVX-EF1alpha-IRES-mCherry and pLVX-EF1alpha-IRES-ZsGreen (Clontech) and transformed into E. coli (One Shot Stbl3, Invitrogen). Point mutations were introduced by whole-plasmid PCR (QuikChange II XL Site-Directed Mutagenesis Kit, Agilent). pLVX lentiviral vectors were co-transfected with psPASx and pMD2.G (Addgene) in 293T cells. After 48 h, viral supernatants were collected and passed through a 0.45 m filter (Millipore). For transductions, 24-well plates were coated with 500 μl of 20 μg ml RetroNectin (Clontech) at 4° C. overnight, blocked with 2% BSA for 30 min, washed with PBS, and 300-500 μl of viral supernatant was added. The plates were centrifuged (2,000 g, 1.5 h) and then set in an incubator. After 2 h, viral supernatant was removed and 500 μl per well of 200,000 cells per ml was added. After 1-3 days, the cells were expanded and isolated by FACS.
Method for GRANTA 519: (§3) All suspension cells were plated (96-well) in triplicate at 5,000-30,000 cells per well for testing (n=3). Viable cell number was estimated after 3, 7 and 10 days by counting viable cells from one vehicle well, generating a cell dilution series, transferring 20 ml per well in duplicate to a 384-well plate, and performing a linear regression to CellTiter-Glo (Promega) response (SPECTRAmax M3, Molecular Devices). Cells from all wells were also fourfold diluted in media and transferred in duplicate for CellTiter-Glo measurement. On days 3 and 7, an equal volume for all wells was split-back with fresh media and compound, such that the resulting cell density for the vehicle well matched the initial seeding density. For days 7 and 10, estimated cell number represents the split-adjusted theoretical cell number. HCT116 were plated (96-well) in triplicate at 250 cells per well. Cells were incubated in the presence of vehicle, 1 μM paclitaxel, or compound. On day 7, CellTiter-Blue (Promega) response was measured and values were normalized to vehicle (100% growth) and paclitaxel (0% growth). For growth assays with inhibitors, n=3 for each concentration with two independent experiments.
Method for HL-60: as §2
Method for MOLM-16: as §2
Method for NB4: as §3
Method for RS4;11: as §3
Method for SET-2 cells: Cell pellets were collected at 4° C., washed three times with cold PBS, and stained with anti-CD61-PE (ab91128) or anti-CD41-PerCP (ab134373) and analyzed by flow cytometry.
Method for SK-ES-1: (§4) For the 62 cell lines 96 well suspension cell culture plates were prepared. 100 μL of the soft agar bottom layer (0.6% final concentration in complete medium) was poured and left to solidify. 50 μL of the soft agar top layer (0.4% final concentration) containing the corresponding cells and cell number were then added on top, solidified and incubated at 37° C., 10% CO2. After the soft agar had solidified, the test items were added at indicated final concentrations into the inner wells of the plate. Subsequently, the assay was incubated in cell culture incubators for 8 to 14 days. Finally, the assay was developed using Alamar Blue and upon 1-5 h of incubation at 37° C. fluorescence intensity was determined (excitation: 560 nm; emission: 590 nm). As low control, cells were treated with 1E-05M Staurosporine (6fold values). As high control, cells were treated with 0.1% DMSO (solvent control, 6 fold values).
(§5) Raw data were converted into percent soft agar growth relative to high controls (solvent 0.1% DMSO) and low controls (1E-05M Staurosporine), which were set to 100% and 0%, respectively.
Method for SK-N-MC: as §4, §5
Method for SK-N-SH: as §4, §5
Method for SKNO-1: as §2

As to `CN(C)[C@H]1C[C@@]23CC[C@@]4(O2)C(=CC[C@]2(C)[C@@H](c5ccc6ccncc6c5)CC[C@H]24)C=C3[C@@H](O)[C@@H]1O` [Cortistatin A, cortistatin A], the “combination index (synergy) for inhibition of proliferation” value in the experiment with UKE-1 and in the experiment with SET-2 [2] was “synergizes” each time. Further, on CDK8 W105M, the “growth of MOLM-14 cells expressing drug resistant allele” value is on record as “able to proliferate in the presence of cortistatin A”. Also, the “% growth rel. to vehicle” value in the experiment on SK-N-SH was found to be 29%; with SK-N-MC, 45%; in the experiment on SK-ES-1, 36%. In addition, the concentration for 50% growth inhibition (GI50) in the experiment with GRANTA 519 was 400 nM; with MOLM-16 (MOLM16), under 1 nM; with MOLM-16 (MOLM16, 240 h), at most 1 nM; with RS4;11, 3 nM; in the experiment with HL-60, 7 nM; in the experiment with MV4;11 (MV4-11), 6 nM. For the same molecule, the 50% growth inhibitory concentration (GI50) is 6 nM in the experiment on MV4;11 (MV4-11, 240 h); over 1000 nM with NB4; 1 nM in the experiment with SKNO-1 (SKNO-1); 1 nM with SKNO-1 (SKNO-1, 240 h); 16 nM in the experiment with ARH-77; 4 nM in the experiment with SET-2 [4] (SET-2). For the same molecule, halving of growth in the experiment with SET-2 [4] (SET-2, 240 h) (GI50) required 4 nM. Moreover, the “expression of RUNX1 target genes” value in [1] is “upregulated RUNX1 target genes”. Moreover, in the experiment on SET-2 cells, the “differentiation of SET-2 cells (percent of cells with megakaryocytic markers CD41 and CD61)” value is given as “induces differentiation of SET-2 cells”. The “difference in sensitivity between megakaryocytic and erythroleukemia cell lines with the same mutations” value in experiment [3] is recorded as “more than 100 fold”. In addition, the “proliferation of SET-2 cells (theoretical cell number versus days of treatment)” value in the experiment with SET-2 [4] (dose-dependent, FIG. 4) is listed as “inhibits the proliferation of SET-2 cells”.
